Assay results as given in ChEMBL document CHEMBL1201862, “PubChem BioAssay data set” (2004).
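Exposure lasted 48 hours, with cells grown in 96-well plates and compounds tested at five concentrations. Abbreviation: GI50, concentration required for 50% inhibition of growth.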 Calls of active or inactive are those of the source. Rule as the data show it: active = GI50 up to about 1.1 µM and inactive = higher.

Legend:
Test in all cases: NCI-60 cell line screen, 48 h
A549 = test system: A549
ACHN = test system: ACHN
EKVX = test system: EKVX
HL-60 = test system: HL-60
HT-29 = test system: HT-29
Hs-578T = test system: Hs-578T
LOX IMVI = test system: LOX IMVI
M14 = test system: M14
MCF7 = test system: MCF7
MDA-N = test system: MDA-N
Malme-3M = test system: Malme-3M
NCI-H460 = test system: NCI-H460
OVCAR-4 = test system: OVCAR-4
OVCAR-5 = test system: OVCAR-5
SF-295 = test system: SF-295
SR = test system: SR
TK-10 = test system: TK-10
UACC-62 = test system: UACC-62
UO-31 = test system: UO-31
SK-OV-3 = test system: SK-OV-3

Row | SMILES | GI50 (A549) | GI50 (ACHN) | GI50 (EKVX) | GI50 (HL-60) | GI50 (HT-29) | GI50 (Hs-578T) | GI50 (LOX IMVI) | GI50 (M14) | GI50 (MCF7) | GI50 (MDA-N) | GI50 (Malme-3M) | GI50 (NCI-H460) | GI50 (OVCAR-4) | GI50 (OVCAR-5) | GI50 (SF-295) | GI50 (SR) | GI50 (TK-10) | GI50 (UACC-62) | GI50 (UO-31) | GI50 (SK-OV-3)
1 | O=C(CC(=O)N1N=C(N2CCCCC2)CC1c1ccccc1)Nc1ccccc1 (stereo not given) | > 100 µM (inactive) | > 100 µM (inactive) | > 100 µM (inactive) | > 100 µM (inactive) | > 100 µM (inactive) | > 100 µM (inactive) | > 100 µM (inactive) | > 100 µM (inactive) | > 100 µM (inactive) | > 100 µM (inactive) | > 100 µM (inactive) | > 100 µM (inactive) | > 100 µM (inactive) | > 100 µM (inactive) | > 100 µM (inactive) | > 100 µM (inactive) | > 100 µM (inactive) | > 100 µM (inactive) | > 100 µM (inactive) | –
2 | CC[n+]1[b-](C(C)(C)C)n(/N=C(\C)C(C)(C)C)[b-](C(C)(C)C)[n+]1CC | > 100 µM (inactive) | > 100 µM (inactive) | > 100 µM (inactive) | – | > 100 µM (inactive) | > 100 µM (inactive) | > 100 µM (inactive) | > 100 µM (inactive) | > 100 µM (inactive) | > 10 µM (inactive) | > 100 µM (inactive) | > 100 µM (inactive) | > 100 µM (inactive) | > 100 µM (inactive) | > 100 µM (inactive) | 23.6 µM (inactive) | > 100 µM (inactive) | > 100 µM (inactive) | > 100 µM (inactive) | –
3 | COC(C)(C)C1=CCC(C)CC1 (stereo not given) | > 100 µM (inactive) | > 100 µM (inactive) | > 100 µM (inactive) | > 10 µM (inactive) | > 100 µM (inactive) | > 100 µM (inactive) | – | > 100 µM (inactive) | 41.8 µM (inactive) | > 100 µM (inactive) | > 100 µM (inactive) | > 100 µM (inactive) | > 100 µM (inactive) | > 100 µM (inactive) | > 100 µM (inactive) | 24 µM (inactive) | > 100 µM (inactive) | > 100 µM (inactive) | > 100 µM (inactive) | > 100 µM (inactive)
4 | CC[C@@H]1CC[C@@H]2[C@H](CC[C@]3(C)[C@@H](O[N+](=O)[O-])CC[C@@H]23)[C@H]1C(C)=O | 28.4 µM (inactive) | 28.4 µM (inactive) | 16.8 µM (inactive) | 13.5 µM (inactive) | 13.1 µM (inactive) | 44.7 µM (inactive) | 20 µM (inactive) | 30.8 µM (inactive) | 23.8 µM (inactive) | 28.9 µM (inactive) | 25.4 µM (inactive) | 27.4 µM (inactive) | 39 µM (inactive) | 64.3 µM (inactive) | 42.6 µM (inactive) | 25.6 µM (inactive) | > 100 µM (inactive) | – | 24.6 µM (inactive) | –
5 | COC(=O)NC1(NC(=O)OC)NC(=O)c2cc(OC)c(OC)c(OC)c2N1 | < 0.01 µM (active) | 86.5 µM (inactive) | > 100 µM (inactive) | 8.15 µM (inactive) | 36.9 µM (inactive) | 13.3 µM (inactive) | – | 21.8 µM (inactive) | 30.3 µM (inactive) | 3.15 µM (inactive) | 1.33 µM (inactive) | 17.2 µM (inactive) | > 100 µM (inactive) | > 100 µM (inactive) | 12.4 µM (inactive) | 17.3 µM (inactive) | 38 µM (inactive) | 30.1 µM (inactive) | 46.2 µM (inactive) | 2.62 µM (inactive)
6 | C[N+]12C=CC=C1C(N1CCCC1)c1scc(-c3ccc(Br)cc3)c12 (stereo not given) | 74.1 µM (inactive) | > 88.9 µM (inactive) | 20.1 µM (inactive) | – | 22.2 µM (inactive) | 1.98 µM (inactive) | 25.5 µM (inactive) | 27.7 µM (inactive) | 22.9 µM (inactive) | 27 µM (inactive) | 9.4 µM (inactive) | 14.6 µM (inactive) | 35.3 µM (inactive) | 42.1 µM (inactive) | 6.4 µM (inactive) | 4.81 µM (inactive) | 91.2 µM (inactive) | 19.2 µM (inactive) | > 100 µM (inactive) | > 81.7 µM (inactive)
7 | COC(=O)c1cn(CCCCO)nn1 | > 100 µM (inactive) | > 100 µM (inactive) | > 100 µM (inactive) | – | > 100 µM (inactive) | > 100 µM (inactive) | > 100 µM (inactive) | – | > 100 µM (inactive) | > 100 µM (inactive) | > 100 µM (inactive) | > 100 µM (inactive) | > 100 µM (inactive) | – | > 100 µM (inactive) | > 100 µM (inactive) | > 100 µM (inactive) | > 100 µM (inactive) | > 100 µM (inactive) | –
8 | O=C1CN(c2ccc(Cl)cc2)C(=O)CN1NCNN1CC(=O)N(c2ccc(Cl)cc2)CC1=O | > 100 µM (inactive) | > 100 µM (inactive) | > 100 µM (inactive) | > 100 µM (inactive) | > 100 µM (inactive) | > 100 µM (inactive) | – | > 100 µM (inactive) | > 100 µM (inactive) | > 100 µM (inactive) | > 100 µM (inactive) | > 100 µM (inactive) | > 100 µM (inactive) | > 100 µM (inactive) | > 100 µM (inactive) | > 100 µM (inactive) | > 100 µM (inactive) | > 100 µM (inactive) | > 100 µM (inactive) | > 100 µM (inactive)
9 | Cc1cc(-c2ccc(C(=O)C(c3ccccc3)(c3ccccc3)c3ccccc3)[nH]2)on1 | 12 µM (inactive) | – | 13.2 µM (inactive) | 3.56 µM (inactive) | 11.4 µM (inactive) | 19.2 µM (inactive) | 19.5 µM (inactive) | 22.8 µM (inactive) | 18.2 µM (inactive) | 16.6 µM (inactive) | 31.4 µM (inactive) | 7.21 µM (inactive) | 32.3 µM (inactive) | 23.8 µM (inactive) | 14.2 µM (inactive) | 2.17 µM (inactive) | – | 16.1 µM (inactive) | 15.2 µM (inactive) | 32.1 µM (inactive)
10 | COC(=O)c1cncc2c1CC1C3(C(=O)OC)C=NC(C4C(CO)=CCC43)C21C (stereo not given) | > 100 µM (inactive) | > 100 µM (inactive) | > 100 µM (inactive) | > 100 µM (inactive) | > 100 µM (inactive) | > 100 µM (inactive) | > 100 µM (inactive) | > 100 µM (inactive) | > 100 µM (inactive) | > 100 µM (inactive) | > 100 µM (inactive) | > 100 µM (inactive) | > 100 µM (inactive) | > 100 µM (inactive) | > 100 µM (inactive) | > 100 µM (inactive) | > 100 µM (inactive) | – | > 100 µM (inactive) | –
11 | Cc1csc2[n+]1C(=O)/C(=C\c1ccc([N+](=O)[O-])cc1)S2 | 27.4 µM (inactive) | 25.4 µM (inactive) | – | 26.2 µM (inactive) | 23.9 µM (inactive) | 25.6 µM (inactive) | 22.5 µM (inactive) | 34 µM (inactive) | 32.7 µM (inactive) | 27.8 µM (inactive) | – | 22.9 µM (inactive) | 42.3 µM (inactive) | 47.2 µM (inactive) | 23.9 µM (inactive) | 32.5 µM (inactive) | 25.2 µM (inactive) | 19.2 µM (inactive) | 15.3 µM (inactive) | 31.5 µM (inactive)
12 | COc1cc2oc(=O)cc(C)c2cc1O | > 100 µM (inactive) | > 100 µM (inactive) | > 100 µM (inactive) | > 100 µM (inactive) | > 100 µM (inactive) | > 100 µM (inactive) | > 100 µM (inactive) | > 100 µM (inactive) | > 100 µM (inactive) | > 100 µM (inactive) | > 100 µM (inactive) | > 100 µM (inactive) | > 100 µM (inactive) | > 100 µM (inactive) | > 100 µM (inactive) | > 100 µM (inactive) | > 100 µM (inactive) | – | 54.5 µM (inactive) | –
13 | c1ccc2c(c1)[nH]c1nc3cc(-c4ccc5nc6c(nc5c4)[nH]c4ccccc46)ccc3nc12 | > 100 µM (inactive) | > 52.8 µM (inactive) | > 90.4 µM (inactive) | 20.9 µM (inactive) | > 100 µM (inactive) | > 100 µM (inactive) | > 39.9 µM (inactive) | > 100 µM (inactive) | 20.5 µM (inactive) | > 100 µM (inactive) | > 100 µM (inactive) | > 33.5 µM (inactive) | > 100 µM (inactive) | > 100 µM (inactive) | > 100 µM (inactive) | – | > 100 µM (inactive) | > 72.9 µM (inactive) | > 100 µM (inactive) | > 100 µM (inactive)
14 | CC1CC(=O)NC2CC1C2(C)C (stereo not given) | > 100 µM (inactive) | > 100 µM (inactive) | – | > 100 µM (inactive) | > 100 µM (inactive) | > 100 µM (inactive) | > 100 µM (inactive) | > 100 µM (inactive) | > 100 µM (inactive) | > 100 µM (inactive) | > 100 µM (inactive) | > 100 µM (inactive) | > 100 µM (inactive) | > 100 µM (inactive) | > 100 µM (inactive) | > 100 µM (inactive) | > 100 µM (inactive) | > 100 µM (inactive) | > 100 µM (inactive) | –
15 | CN/C(=N\N=C1/C(=O)Nc2ccccc21)SCC(=O)c1ccc(Br)cc1 | 5.01 µM (inactive) | 15.5 µM (inactive) | 22.3 µM (inactive) | 3.48 µM (inactive) | 8.59 µM (inactive) | 10.9 µM (inactive) | 8.38 µM (inactive) | 11.7 µM (inactive) | 3.48 µM (inactive) | 21.3 µM (inactive) | 13.5 µM (inactive) | 10.2 µM (inactive) | 21.5 µM (inactive) | 32 µM (inactive) | 18.7 µM (inactive) | – | 15 µM (inactive) | 50.1 µM (inactive) | 1.04 µM (active) | 9.04 µM (inactive)
